Converted amounts (≈) assume the structure as drawn. Where two headings read alike, the source gives them in different places.
Key:
Nav1.5 (peak current) = molecular target: T1, Nav1.5 (peak current) (Homo sapiens, UniProt Q14524); test: QPatch ion channel assay; assay type: cell-based; conditions: read-out: % Inhibition (n = 2), Nav1.5
T1 construct: host or cells: HEK-293
Excerpt: (§1) The automated whole-cell patch-clamp (Qpatch HT) technique is used to record depolarizing currents, hNav1.5 and hCav1.2, and repolarizing potassium currents, hERG. Cells Recombinant HEK-293 cells stably transfected with human Nav1.5 cDNA, Recombinant HEK293 cell line expressing the human Cav1.2 (L-type voltage-gated calcium channel, hCav1.2 α1C/β2a/α2δ1, and recombinant CHO-K1 cells stably transfected with human hERG cDNA are used separately in each of these assays. The cells are harvested by Accutase and maintained in Serum-Free Medium at room temperature before assay. On the instrument, the cells are pipetted into each well of a 48-well plate in external solution. Test concentration stock solution is prepared in DMSO at 300× the final assay concentrations, and stored at −20 °C until the day of assay. On the day of the assay, an aliquot of the stock solution is thawed and diluted into external solution to make final test concentrations. A final concentration of 0.33% DMSO is maintained for each concentration of the assay compounds and controls. The assay is conducted at room temperature. Recording conditions hNav1.5 Peak current Onset and steady state block of peak Nav1.5 current are measured using a pulse pattern, repeated every 5 sec, consisting of a hyperpolarizing pulse to −120 mV for a 200 ms duration, depolarization to −15 mV amplitude for a 40 ms duration, followed by a step to 40 mV for 200 ms and finally a 100 ms ramp (1.2 V/s) to a holding potential of −80 mV. hCav1.2 currents are evoked following a 100 ms pulse to −60 mV followed by a 50 ms pulse to +10 mV before returning to the holding potential of −90 mV. This paradigm is delivered three times once every 20 s. Cells are held at −90 mV with a 5 s pulse to −60 mV every 20 s for a total of 120 s between each set of three pulses. The cell is held at −80 mV. Then the cell is depolarized to +40 mV for 500 ms and then to −80 mV over a 100 ms ramp to elicit the hERG tail current. This paradigm is delivered once every 8 s. The Extracellular Solution (control) is applied first and the cell is stabilized in the solution for 5 min. Then the test compound is applied from low to high concentrations sequentially on the same cell. The cells are incubated with each test concentration for 5 min. Reference compounds Tetracaine Nifedipine and E-4031 are tested concurrently for hNav1.5, hCav1.2 and hERG, respectively, at multiple concentrations to obtain an IC50 value.
(§2) The amplitude of the sodium current is calculated by measuring the difference between the peak inward current on stepping to −10 mV (i.e., peak current) and the leak current. The sodium current is assessed in vehicle control conditions and then at the end of each five (5)-minute compound application. Individual cell results are normalized to the vehicle control amplitude and the mean ± SEM is calculated for each compound concentration. These values are then plotted and estimated IC50 curve fits are calculated. The maximum inward current elicited on stepping to +10 mV for 50msec from −60 mV is measured. Compound interaction is assessed by dividing post-current amplitude (at the end of each three (3)-minute compound application) by the vehicle control amplitude and the mean calculated for each compound concentration. These values are then plotted and estimated IC50 curve fits are calculated. The percent inhibition of the hERG channel is calculated by comparing the peak (hERG tail) current amplitude before and after application of the compound (the current difference is normalized to vehicle control values).

Cav1.2 = molecular target: T2, Cav1.2 (Homo sapiens, UniProt Q13936); test: QPatch ion channel assay; assay type: cell-based; conditions: read-out: % Inhibition (n = 2), Cav1.2
T2 construct: host or cells: HEK293
T2 sequence (Q13936 whole entry): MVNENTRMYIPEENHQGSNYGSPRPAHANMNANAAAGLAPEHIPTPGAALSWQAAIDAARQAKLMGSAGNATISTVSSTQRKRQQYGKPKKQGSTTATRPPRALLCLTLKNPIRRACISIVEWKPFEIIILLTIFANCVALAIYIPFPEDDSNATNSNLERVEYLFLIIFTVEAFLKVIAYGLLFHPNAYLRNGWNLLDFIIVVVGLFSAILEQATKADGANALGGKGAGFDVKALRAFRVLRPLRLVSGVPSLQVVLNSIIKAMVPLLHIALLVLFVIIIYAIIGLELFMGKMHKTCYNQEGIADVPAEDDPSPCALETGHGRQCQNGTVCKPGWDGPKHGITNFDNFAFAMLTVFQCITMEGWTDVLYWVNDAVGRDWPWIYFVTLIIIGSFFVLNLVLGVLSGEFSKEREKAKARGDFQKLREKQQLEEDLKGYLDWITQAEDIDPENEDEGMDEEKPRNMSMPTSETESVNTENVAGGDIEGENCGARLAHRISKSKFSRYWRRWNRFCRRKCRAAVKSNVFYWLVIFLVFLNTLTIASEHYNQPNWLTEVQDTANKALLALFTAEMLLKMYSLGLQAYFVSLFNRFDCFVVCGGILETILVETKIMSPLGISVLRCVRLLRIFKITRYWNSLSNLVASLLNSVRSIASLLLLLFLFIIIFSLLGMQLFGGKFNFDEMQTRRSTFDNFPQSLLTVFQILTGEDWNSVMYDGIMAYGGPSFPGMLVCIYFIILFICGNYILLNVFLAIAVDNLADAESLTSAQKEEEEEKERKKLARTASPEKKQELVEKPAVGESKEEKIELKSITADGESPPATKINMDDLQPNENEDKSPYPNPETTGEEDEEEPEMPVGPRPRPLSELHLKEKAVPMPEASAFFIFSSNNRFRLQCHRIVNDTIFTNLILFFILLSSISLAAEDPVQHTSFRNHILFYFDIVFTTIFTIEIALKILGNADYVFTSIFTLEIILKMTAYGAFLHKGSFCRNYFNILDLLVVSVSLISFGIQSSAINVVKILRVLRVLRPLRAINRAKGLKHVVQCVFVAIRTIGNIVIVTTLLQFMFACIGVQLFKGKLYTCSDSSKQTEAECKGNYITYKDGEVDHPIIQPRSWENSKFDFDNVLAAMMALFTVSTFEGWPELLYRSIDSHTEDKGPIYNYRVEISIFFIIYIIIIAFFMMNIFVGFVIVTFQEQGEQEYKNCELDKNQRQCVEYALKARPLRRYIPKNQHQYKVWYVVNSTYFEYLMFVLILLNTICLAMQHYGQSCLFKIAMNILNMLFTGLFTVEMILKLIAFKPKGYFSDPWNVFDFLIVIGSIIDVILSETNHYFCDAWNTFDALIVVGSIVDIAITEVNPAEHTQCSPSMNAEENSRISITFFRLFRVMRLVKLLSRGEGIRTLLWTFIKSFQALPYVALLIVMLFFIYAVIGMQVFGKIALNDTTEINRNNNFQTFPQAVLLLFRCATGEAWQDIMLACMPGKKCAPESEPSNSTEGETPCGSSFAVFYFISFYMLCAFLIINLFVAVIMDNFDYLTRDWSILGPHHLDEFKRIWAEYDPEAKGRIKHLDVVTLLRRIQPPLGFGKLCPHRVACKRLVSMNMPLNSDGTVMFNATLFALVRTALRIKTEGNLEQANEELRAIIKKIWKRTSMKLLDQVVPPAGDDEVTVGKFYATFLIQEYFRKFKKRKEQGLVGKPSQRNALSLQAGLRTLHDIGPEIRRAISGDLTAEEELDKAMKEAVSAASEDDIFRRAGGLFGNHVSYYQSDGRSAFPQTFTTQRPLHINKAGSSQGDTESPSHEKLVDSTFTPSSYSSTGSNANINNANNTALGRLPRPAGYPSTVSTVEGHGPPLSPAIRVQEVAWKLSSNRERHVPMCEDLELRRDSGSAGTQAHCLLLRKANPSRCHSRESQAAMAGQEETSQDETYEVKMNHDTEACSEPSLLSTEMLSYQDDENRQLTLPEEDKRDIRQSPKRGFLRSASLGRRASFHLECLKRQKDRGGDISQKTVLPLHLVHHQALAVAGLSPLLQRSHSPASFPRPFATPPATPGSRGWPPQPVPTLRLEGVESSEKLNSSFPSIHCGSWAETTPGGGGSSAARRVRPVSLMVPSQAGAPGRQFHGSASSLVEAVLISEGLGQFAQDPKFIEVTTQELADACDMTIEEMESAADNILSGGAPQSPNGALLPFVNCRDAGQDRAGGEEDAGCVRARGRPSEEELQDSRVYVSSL
T2 sequence (Q08289 whole entry partner): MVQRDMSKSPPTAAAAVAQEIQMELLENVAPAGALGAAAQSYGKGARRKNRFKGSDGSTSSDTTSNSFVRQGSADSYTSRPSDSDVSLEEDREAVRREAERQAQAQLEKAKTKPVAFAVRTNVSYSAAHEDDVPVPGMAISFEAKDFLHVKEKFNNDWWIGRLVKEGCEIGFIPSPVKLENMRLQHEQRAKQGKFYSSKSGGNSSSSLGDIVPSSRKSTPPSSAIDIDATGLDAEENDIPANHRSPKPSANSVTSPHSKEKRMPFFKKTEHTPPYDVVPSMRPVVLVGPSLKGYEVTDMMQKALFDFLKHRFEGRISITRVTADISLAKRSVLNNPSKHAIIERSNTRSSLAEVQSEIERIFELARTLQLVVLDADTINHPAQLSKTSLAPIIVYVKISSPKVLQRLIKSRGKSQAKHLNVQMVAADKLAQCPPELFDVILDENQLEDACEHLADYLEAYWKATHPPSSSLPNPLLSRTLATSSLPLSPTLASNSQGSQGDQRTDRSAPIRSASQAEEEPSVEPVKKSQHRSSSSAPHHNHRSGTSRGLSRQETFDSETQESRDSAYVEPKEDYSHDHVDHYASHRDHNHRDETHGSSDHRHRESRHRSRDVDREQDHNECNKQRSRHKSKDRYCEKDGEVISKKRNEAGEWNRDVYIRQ
T2 sequence (P54289 25-1103 partner): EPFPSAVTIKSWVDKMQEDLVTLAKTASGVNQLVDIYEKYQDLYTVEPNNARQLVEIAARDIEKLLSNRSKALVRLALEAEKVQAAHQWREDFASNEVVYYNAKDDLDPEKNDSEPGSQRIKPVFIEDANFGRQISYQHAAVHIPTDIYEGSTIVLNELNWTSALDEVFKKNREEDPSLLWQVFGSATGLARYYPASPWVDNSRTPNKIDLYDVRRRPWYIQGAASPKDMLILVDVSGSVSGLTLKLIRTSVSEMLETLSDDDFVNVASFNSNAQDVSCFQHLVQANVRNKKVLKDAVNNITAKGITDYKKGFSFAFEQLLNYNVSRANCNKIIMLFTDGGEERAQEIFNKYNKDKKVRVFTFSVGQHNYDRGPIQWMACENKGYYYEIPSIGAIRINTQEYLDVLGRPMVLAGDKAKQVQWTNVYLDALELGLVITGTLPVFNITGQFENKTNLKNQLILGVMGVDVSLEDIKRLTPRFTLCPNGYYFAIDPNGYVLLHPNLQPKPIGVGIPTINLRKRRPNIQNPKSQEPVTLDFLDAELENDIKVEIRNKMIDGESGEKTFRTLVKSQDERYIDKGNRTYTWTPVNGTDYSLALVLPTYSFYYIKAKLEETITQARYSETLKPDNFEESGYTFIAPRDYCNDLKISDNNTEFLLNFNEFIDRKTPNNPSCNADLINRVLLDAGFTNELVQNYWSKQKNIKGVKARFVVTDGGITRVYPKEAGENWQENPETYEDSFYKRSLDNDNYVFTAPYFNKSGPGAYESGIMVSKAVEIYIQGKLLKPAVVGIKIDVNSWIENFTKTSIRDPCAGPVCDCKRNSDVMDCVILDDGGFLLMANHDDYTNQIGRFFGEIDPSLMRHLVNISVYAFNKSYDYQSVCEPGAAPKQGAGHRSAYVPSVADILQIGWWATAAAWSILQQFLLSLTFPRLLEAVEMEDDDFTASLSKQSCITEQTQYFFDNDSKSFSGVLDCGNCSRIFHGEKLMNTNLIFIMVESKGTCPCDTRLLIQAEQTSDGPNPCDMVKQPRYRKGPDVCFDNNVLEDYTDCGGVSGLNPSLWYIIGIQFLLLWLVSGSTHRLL
Excerpt: as §1, §2

hERG = molecular target: T3, hERG (Homo sapiens, UniProt Q12809); test: QPatch ion channel assay; assay type: cell-based; conditions: CHO-K1 cells stably transfected with human hERG, read-out: % Inhibition (n = 2), hERG
T3 construct: host or cells: CHO-K1
T3 sequence (Q12809 whole entry): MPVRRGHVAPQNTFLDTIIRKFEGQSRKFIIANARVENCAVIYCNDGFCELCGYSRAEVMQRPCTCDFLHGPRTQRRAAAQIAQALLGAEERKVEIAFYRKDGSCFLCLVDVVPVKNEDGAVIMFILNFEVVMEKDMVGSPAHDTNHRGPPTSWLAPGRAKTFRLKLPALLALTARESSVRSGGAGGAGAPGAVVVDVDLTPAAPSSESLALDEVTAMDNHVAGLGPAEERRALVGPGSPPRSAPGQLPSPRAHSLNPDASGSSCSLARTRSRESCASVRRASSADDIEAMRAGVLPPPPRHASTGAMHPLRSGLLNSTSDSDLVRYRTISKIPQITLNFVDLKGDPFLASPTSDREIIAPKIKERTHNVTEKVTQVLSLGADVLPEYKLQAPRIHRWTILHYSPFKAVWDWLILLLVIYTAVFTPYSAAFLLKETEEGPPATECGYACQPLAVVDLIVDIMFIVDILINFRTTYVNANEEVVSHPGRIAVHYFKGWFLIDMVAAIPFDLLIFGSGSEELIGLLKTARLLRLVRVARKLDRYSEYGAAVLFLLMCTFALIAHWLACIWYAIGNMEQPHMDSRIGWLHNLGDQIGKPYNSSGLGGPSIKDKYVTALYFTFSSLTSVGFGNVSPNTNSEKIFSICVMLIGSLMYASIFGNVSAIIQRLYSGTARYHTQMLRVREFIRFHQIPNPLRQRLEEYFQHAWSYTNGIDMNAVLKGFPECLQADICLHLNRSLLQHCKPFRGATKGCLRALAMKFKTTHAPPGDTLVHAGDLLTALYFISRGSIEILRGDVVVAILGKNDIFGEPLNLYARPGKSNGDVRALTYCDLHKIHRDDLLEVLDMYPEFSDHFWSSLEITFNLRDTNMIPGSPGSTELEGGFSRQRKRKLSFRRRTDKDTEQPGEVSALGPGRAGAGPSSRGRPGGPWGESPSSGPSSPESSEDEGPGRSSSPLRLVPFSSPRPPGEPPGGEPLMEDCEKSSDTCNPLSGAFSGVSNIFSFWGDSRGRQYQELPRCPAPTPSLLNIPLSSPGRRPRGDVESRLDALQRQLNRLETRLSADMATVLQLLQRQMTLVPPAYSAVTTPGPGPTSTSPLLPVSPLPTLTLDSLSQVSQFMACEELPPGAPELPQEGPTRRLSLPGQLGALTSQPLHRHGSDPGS
Excerpt: as §1, §2

Aqueous solubility = assay type: physicochemical; conditions: for solubility at 6 h: system solution (SS), pH 7.4, aqueous buffer, kinetic from dmso stock
Procedure: The aqueous solubility of TXA11114 was evaluated in system solution (SS) at pH 7.4. Known concentrations of TXA11114, prepared as DMSO stock solutions, were spiked into SS and incubated for 6 h at room temperature with constant shaking (250 rpm). Caffeine and diethylstilbestrol (DES) were used as positive controls. […] Aliquots (500 µL) of diluted test and control compounds were dispensed into 96-deep-well plates in triplicate, sealed, and incubated as described above. Following incubation, 300 µL samples were withdrawn and filtered using 0.22 µm filter plates. Optical density at λ_max was measured using a UV spectrophotometer.

P. aeruginosa ATCC 27853 [1] = assay type: cell-based, Pseudomonas aeruginosa
Procedure: OmpH is a homologous periplasmic chaperone that binds newly synthesized, unfolded outer membrane proteins (OMPs) and delivers them to the outer membrane for assembly by the BAM machinery, thereby preventing aggregation and facilitating proper membrane insertion.
Frequency-of-resistance studies were carried out as described previously.

[2] = tested on: P. aeruginosa ATCC 27853 ompH mutants EPIR32, EPIR36, EPIR38; test: microbe, parasite or virus in culture; assay type: cell-based, Pseudomonas aeruginosa
Procedure: MIC assays for potentiation of antimicrobial activity against P. aeruginosa were performed as described previously.

P. aeruginosa ATCC 27853 [3] = test: Intracellular ATP levels; assay type: cell-based, Pseudomonas aeruginosa; conditions: three hours post-treatment
Procedure: Further, a deviation from normal membrane function can affect the activity of respiratory components and diminish ATP synthesis. Thus, an indirect approach to assess a drug’s membrane effect is by monitoring cellular ATP levels after treatment. To exclude ATP depletion as a TXA11114 MoA, bacterial ATP levels were evaluated three hours post-treatment. […] Azithromycin was used as a negative control.
P. aeruginosa intracellular ATP levels were determined as described previously using an ATP determination kit (Invitrogen, Life Technologies, Carlsbad, CA, USA). Bacterial culture strain ATCC 27853 was grown to the mid-log phase (OD600 = 0.7), washed, and resuspended in the same volume of PBSM (1X PBS, 1mM MgCl2). […] After treatment, the cells were lysed in chloroform which was subsequently removed by boiling at 80 °C. The persistent ATP from cell lysate was measured in a 96-well black flat-bottom plate by measuring the luminescence. Luminescence was converted to concentration from standard curve. […] Error bars represent the standard deviation of triplicates.

[4] = Pseudomonas aeruginosa, ATCC27853, EPIR32
[5] = Pseudomonas aeruginosa, ATCC27853, EPIR38

SMILES | inhibition at 5 min, 10 µM (Nav1.5 (peak current)) | inhibition at 3 min, 10 µM (Cav1.2) | inhibition at 5 min, 10 µM (hERG) | solubility at 6 h (Aqueous solubility) | Frequency of Resistance (P. aeruginosa ATCC 27853 [1]; ATCC 27853, levofloxacin 4× MIC (4 μg/mL) alone) | MIC [2, 4] | MIC [2, 5] | Frequency of Resistance (P. aeruginosa ATCC 27853 [1]) | FoR, resistance to TXA11114 alone (P. aeruginosa ATCC 27853 [1]; 1X-MIC (100 µg/mL), ATCC 27853) | FoR, resistance to TXA11114 alone (P. aeruginosa ATCC 27853 [1]; 4X-MIC (400 µg/mL), ATCC 27853) | Aqueous solubility (Aqueous solubility; pH 7.4) | Fold MIC reduction [LVX/EPI‐LVX] ([2]; EPI36) | LVX MIC (+ EPI […]) ([2]; EPI36) | Fold MIC reduction [LVX/EPI‐LVX] ([2]; EPIR32) | LVX MIC (+ EPI […]) ([2]; EPIR32) | MIC ([2]; EPIR36, listed as TXA) | MIC ([2]; Pseudomonas aeruginosa, ATCC27853, EPIR36) | Cellular ATP level (P. aeruginosa ATCC 27853 [3])
NC[C@@H]1CN[C@H](CNC(=O)c2cc3ccc(-c4ccc(F)cc4)cc3[nH]2)C1 [TXA09155] | 0.1% | 12.7% | 9.2% | 155 ± 3 µM (≈ 56.8 µg/mL) |  |  |  |  |  |  |  |  |  |  |  |  |  | 
C[C@H]1COc2c(N3CCN(C)CC3)c(F)cc3c(=O)c(C(=O)O)cn1c23 [Levofloxacin, levofloxacin] |  |  |  |  | 3.80 × 10^−8 | 0.25 µg/mL | 0.5 µg/mL |  |  |  |  |  |  |  |  |  |  | 
NCC(F)C[C@@H](N)CNC(=O)c1cc2ccc(-c3ccc(F)cc3)cc2[nH]1 (stereo partly drawn) [TXA11114, N-((2R)-2,5-diamino-4-fluoropentyl)-6-(4-fluorophenyl)-1H-indole-2-carboxamide] | -3.7% | 0.2% | 10.9% | > 145 µM |  | > 200 µg/mL | 200 µg/mL | <1.04 × 10^−10 | 1.8 × 10^−6 | <3.09 × 10^−9 | 145.9 ± 6.1 µM | 1 fold | 0.125 | 1 fold | 0.25 | 200 µg/mL | > 200 µg/mL | did not result in ATP depletion

From article PMC13114161 (Antibiotics, 2026)
